Data taken from patent US7091351B2, “Vanadium compounds for treating cancer” (Parker Hughes Institute, priority 1998, dated 2006).

What was measured:
[1] = system: U266BL multiple myeloma cells; test: MTT cytotoxicity assay of oxovanadium(IV) compounds, U266BL; type: cell-based, human; conditions: 48 hr
Description: The cytotoxicity of oxovanadium (W) complexes listed in Table 6 were tested against 9 different human cancer cell lines was performed using the MTT (3-[4,5-dimethylthiazol-2-yl]-2,5-diphenyl tetrazolium bromide) assay (Boehringer Mannheim Corp., Indianapolis, Ind.) as described previously (20). Briefly, exponentially growing tumor cells were seeded into a 96-well plate at a density of 4×10^4cells/well and incubated with medium containing the oxovanadium(IV) compounds concentrations ranging from 0.1 to 250 μM for 48 hours at 37° C. in a humidified 5% CO2 atmosphere. Triplicate wells were used for each treatment. To each well, 10 μl of MTT (0.5 mg/ml final concentration) was added and the plates were incubated at 37° C. for 4 hours to allow MTT to form formazan crystals by reacting with metabolically active cells . The formazan crystals were solubilized overnight at 37° C. in a solution containing 10% SDS in 0.01 M HCl. The absorbence of each well was measured in a microplate reader (Labsystems) at 540 nm and a reference wavelength of 690 nm. To translate the OD540 values into the number of live cells in each well, the OD540 values were compared to those on standard OD540—versus—cell number curves generated for each cell line. The percent survival was calculated using the formula: % survival=Live cell number[test]/Live cell number [control]×100. The IC50 values were calculated by non-linear regression analysis using an Graphpad Prism software version 2.0 (Graphpad Software, Inc., San Diego, Calif.).

U373 glioblastoma cells = test: MTT cytotoxicity assay of vanadocenes, U373 cells; type: cell-based, human; conditions: 24 h
Description: Human testicular cancer cell lines, Tera-2 (embryonal carcinoma) and Ntera-2 (pluripotent embryonal carcinoma) were obtained from the American Type Culture Collection (ATCC) (Rockeville, Md.) and propagated in T-25, T-75, or T-150 cm^2 tissue culture flasks (Corning Corp., Corning, N.Y.) in McCoy's 5A medium and Dulbecco's modified Eagle's medium respectively. Both media were supplemented with 10% fetal calf serum (FCS), 4 mM glutamine, 100 U/ml penicillin G, and […] streptomycin sulfate. All tissue culture reagents were obtained from Life Technologies Inc. (GIBCO-BRL), Gaithersburg, Md. Cell lines were cultivated for a minimum of two passages after thawing prior to experimentation. Other cell lines that were used in this study were the human B-lineage acute lymphoblastic leukemia (ALL) cell line NALM-6. Uckun, F. M., Evans, W. E., Forsyth, C. J., Waddick, K. G., Tuel-Ahlgren, L., Chelstrom, L. M., Burkhardt, A., Bolen, J., Myers, D. E. Biotherapy of B-cell precursor leukemia by targeting genistein to CD19-associated tyrosine kinase. Science (Washington DC) 267:886–91, 1995; T-lineage ALL cell line MOLT-3, Waurzyniak, B., Shneider, E. A., Tumer, N., Yanishevski, Y., Gunther, R., Chelstrom, L., Wendorf, H., Myers, D. E., Irvin, J. D., Messinger, Y., Ek, O., Zeren, T., Chandan-Langlie, M., Evans, W. E., Uckun, F. M. In vivo toxicity, pharmacokinetics, and antileukemic activity of TXU (anti-CD7)-pokeweed antiviral protein immunotoxin. Clinical Cancer Research 3:881–890, 1997; AML cell line HL-60, Perentesis, J. P., Waddick, K. G., Bendel, A. E., Shao, Y., Warman, B. E., Chandan-Langlie, M., and Uckun, F. M. Induction of apoptosis in multi-drug resistant andradiation-resistant acute myeloid leukemia cells by a recombinant fusion toxin directed against the granulocyte macrophage colony stimulating factor receptor. Clin. Cancer Res. 3:347–355, 1997; breast cancer cell lines MDA-MB-231 and BT-20, Uckun, F. M., Narla, R. K., Jun, X., Zeren, T., Venkatachalam, T., Waddick, K. G., Rostostev, A., Myers, D. E. Cytotoxic activity of EGF-genstein against breast cancer cells. Clin. Cancer Res. 4:901–912, 1998; glioblastoma cell lines U87 and U373, Narla, R. K., Liu, X., Myers, D. E., and Uckun, F. M. 4-(3′-Bromo-4′hydroxylphenyl)-amino-6,7-dimethoxyquinazoline (WHI-P154): A novel quinazoline derivative with potent cytotoxic activity against human glioblastoma cells. Clin. Cancer Res. 4:1405–1414, 1998.
MTT (3-[4,5-dimethyl thiazol-2-yl]-2,5-diphenyltetrazolium bromide)-based colorimetric assays were used for evaluation of the cytotoxicity of vanadocene compounds. Mosmann, T. Rapid colorimetric assay for cellular growth and survival: application to proliferation and cytotoxicity assays. J. Immunol. Methods, 65: 55–63, 1983. Briefly, cells were harvested with 0.125% (w/v) trypsin-0.02% EDTA (GIBCO-BRL) from exponential-phase maintenance cultures and centrifuged (300 g×5 min). After suspension and counting, cells were dispensed within triplicate 96-well tissue culture plates in 100 μl volumes. After 24 h incubation, the culture medium was discarded and replaced with 100 μl of fresh medium containing serial two-fold dilutions of drugs in medium to yield 1.9 μM to 250 μM. All compounds were reconstituted in DMSO to a concentration of 100 mM, and the stock solution was made fresh for each experiment. Control wells consisted of medium containing 0.25% of DMSO alone were used for solvent control. Culture plates were then incubated for 24 h before adding 10 μl of MTT solution (5 mg/ml in PBS) to each well. Wells containing only medium and MTT were used as controls for each plate. The tetrazolium/formazan reaction was allowed to proceed for 4 h at 37° C., and then 100 μl of the solubilization buffer (10% sodium dodecyl sulfate in 0.1% HCl) were added to all wells and mixed thoroughly to dissolve the dark blue formazan crystals. […]

Row | Compound | IC50 [1] | IC50 (U373 glioblastoma cells)
1 | bis(4,7-dimethyl-1,10-phenanthroline)sulfatooxovanadium(IV) [Compound 29] | 0.5 ± 0.02 µM | 
2 | [Cl-].[Cl-].[V+4].c1cc[cH-]c1.c1cc[cH-]c1 [VDC, VCp2Cl2] |  | 42 µM
